Assay results as given in PubChem BioAssay AID1963443 (Molecular Pharmacology Branch, DTP, NCI, 2024).
One block for each compound: values may come before it.

Tested on: MDA-MB-231 complex spheroids, growth inhibition
Experiment: Anticancer human tumor MDA-MB-231 cell line growth inhibition [Asc];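 also: spheroids exposed to compounds for 7 days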
Conditions: for IC50: curve of first compound; for viability, T/C: stronger effect = lower value
Summary of the method: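 Tumor cells were grown as multicellular spheroids with stromal HUVEC and mesenchymal stem cells and treated singly or in combination. Concentrations fell in half-log steps from the clinical Cmax, or from 10 microM where none was known.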

[1] = second compound 0.1 µM, first compound 0.0316 µM
[2] = second compound 0.1 µM, first compound 0.1 µM
[3] = second compound 0.1 µM, first compound 0.316 µM
[4] = second compound 0.1 µM, first compound 1 µM
[5] = second compound 0.1 µM, first compound 3.16 µM
[6] = second compound 0.1 µM, first compound 10 µM
[7] = second compound 0.316 µM, first compound 0.0316 µM
[8] = second compound 0.316 µM, first compound 0.1 µM
[9] = second compound 0.316 µM, first compound 0.316 µM
[10] = second compound 0.316 µM, first compound 1 µM
[11] = second compound 0.316 µM, first compound 3.16 µM
[12] = second compound 0.316 µM, first compound 10 µM
[13] = second compound 1 µM, first compound 0.0316 µM
[14] = second compound 1 µM, first compound 0.1 µM
[15] = second compound 1 µM, first compound 0.316 µM
[16] = second compound 1 µM, first compound 1 µM
[17] = second compound 1 µM, first compound 3.16 µM
[18] = second compound 1 µM, first compound 10 µM
[19] = second compound 3.16 µM, first compound 0.0316 µM
[20] = second compound 3.16 µM, first compound 0.1 µM
[21] = second compound 3.16 µM, first compound 0.316 µM
[22] = second compound 3.16 µM, first compound 1 µM
[23] = second compound 3.16 µM, first compound 3.16 µM
[24] = second compound 3.16 µM, first compound 10 µM
[25] = second compound 10 µM, first compound 0.0316 µM
[26] = second compound 10 µM, first compound 0.1 µM
[27] = second compound 10 µM, first compound 0.316 µM
[28] = second compound 10 µM, first compound 1 µM
[29] = second compound 10 µM, first compound 3.16 µM
[30] = second compound 10 µM, first compound 10 µM

IC50 (second compound 0.1 µM): 2290 nM
IC50 (second compound 0.316 µM): 2110 nM
IC50 (second compound 1 µM): 1850 nM
IC50 (second compound 3.16 µM): 1740 nM
IC50 (second compound 10 µM): 1710 nM
Structure (SMILES): C=C(F)C(=O)N1CCN(c2nc(OCC3CCCN3C)nc3c2CCN(c2cccc4cccc(Cl)c24)C3)CC1CC#N (stereo not given) + Cc1c(S(C)(=O)=O)c(-c2cc(F)cc(N3CCN(c4ccc(NS(=O)(=O)c5ccc(NC(CCN6CCC(C(=O)OCCCP(=O)(O)O)CC6)CSc6ccccc6)c(S(=O)(=O)C(F)(F)F)c5)cc4)CC3)c2)c(-c2ccc(Cl)cc2)n1C(C)C
viability, T/C [1]: 92.2%
viability, T/C [2]: 97.2%
viability, T/C [3]: 97.2%
viability, T/C [4]: 101%
viability, T/C [5]: 31.6%
viability, T/C [6]: 0.12%
viability, T/C [7]: 106%
viability, T/C [8]: 108%
viability, T/C [9]: 106%
viability, T/C [10]: 109%
viability, T/C [11]: 18.6%
viability, T/C [12]: 0.09%
viability, T/C [13]: 103%
viability, T/C [14]: 100%
viability, T/C [15]: 97.5%
viability, T/C [16]: 97.4%
viability, T/C [17]: 8.81%
viability, T/C [18]: 0.09%
viability, T/C [19]: 95.8%
viability, T/C [20]: 93%
viability, T/C [21]: 94.9%
viability, T/C [22]: 91.8%
viability, T/C [23]: 4.45%
viability, T/C [24]: 0.09%
viability, T/C [25]: 104%
viability, T/C [26]: 100%
viability, T/C [27]: 99.7%
viability, T/C [28]: 91.3%
viability, T/C [29]: 2.9%
viability, T/C [30]: 0.14%

IC50 (second compound 0.1 µM): > 10000 nM
IC50 (second compound 0.316 µM): > 10000 nM
IC50 (second compound 1 µM): > 10000 nM
IC50 (second compound 3.16 µM): > 10000 nM
IC50 (second compound 10 µM): > 10000 nM
Structure (SMILES): C=CC(=O)N1CCN(c2nc(=O)n(-c3c(C)ccnc3C(C)C)c3nc(-c4c(O)cccc4F)c(F)cc23)C(C)C1 (stereo not given) + Cc1c(S(C)(=O)=O)c(-c2cc(F)cc(N3CCN(c4ccc(NS(=O)(=O)c5ccc(NC(CCN6CCC(C(=O)OCCCP(=O)(O)O)CC6)CSc6ccccc6)c(S(=O)(=O)C(F)(F)F)c5)cc4)CC3)c2)c(-c2ccc(Cl)cc2)n1C(C)C
viability, T/C [1]: 99.8%
viability, T/C [2]: 94.4%
viability, T/C [3]: 96.7%
viability, T/C [4]: 102%
viability, T/C [5]: 105%
viability, T/C [6]: 98.4%
viability, T/C [7]: 106%
viability, T/C [8]: 112%
viability, T/C [9]: 111%
viability, T/C [10]: 117%
viability, T/C [11]: 116%
viability, T/C [12]: 116%
viability, T/C [13]: 108%
viability, T/C [14]: 106%
viability, T/C [15]: 100%
viability, T/C [16]: 111%
viability, T/C [17]: 109%
viability, T/C [18]: 96.6%
viability, T/C [19]: 104%
viability, T/C [20]: 96.8%
viability, T/C [21]: 89.1%
viability, T/C [22]: 97.5%
viability, T/C [23]: 105%
viability, T/C [24]: 91.2%
viability, T/C [25]: 96.6%
viability, T/C [26]: 93.7%
viability, T/C [27]: 93.3%
viability, T/C [28]: 96.6%
viability, T/C [29]: 97.1%
viability, T/C [30]: 83.4%

IC50 (second compound 0.1 µM): > 3000 nM
IC50 (second compound 0.316 µM): > 3000 nM
IC50 (second compound 1 µM): > 3000 nM
IC50 (second compound 3.16 µM): > 3000 nM
IC50 (second compound 10 µM): > 3000 nM
Structure (SMILES): CCN1C(C(=O)NC23CCC(C(=O)O)(CC2)CC3)C(c2cccc(Cl)c2F)C2(C(=O)Nc3cc(Cl)ccc32)C12CCCCC2 (stereo not given) + Cc1c(S(C)(=O)=O)c(-c2cc(F)cc(N3CCN(c4ccc(NS(=O)(=O)c5ccc(NC(CCN6CCC(C(=O)OCCCP(=O)(O)O)CC6)CSc6ccccc6)c(S(=O)(=O)C(F)(F)F)c5)cc4)CC3)c2)c(-c2ccc(Cl)cc2)n1C(C)C
viability, T/C (second compound 0.1 µM, first compound 0.00949 µM): 90%
viability, T/C (second compound 0.1 µM, first compound 0.03 µM): 82.6%
viability, T/C (second compound 0.1 µM, first compound 0.0949 µM): 103%
viability, T/C (second compound 0.1 µM, first compound 0.3 µM): 103%
viability, T/C (second compound 0.1 µM, first compound 0.949 µM): 101%
viability, T/C (second compound 0.1 µM, first compound 3 µM): 108%
viability, T/C (second compound 0.316 µM, first compound 0.00949 µM): 104%
viability, T/C (second compound 0.316 µM, first compound 0.03 µM): 105%
viability, T/C (second compound 0.316 µM, first compound 0.0949 µM): 105%
viability, T/C (second compound 0.316 µM, first compound 0.3 µM): 106%
viability, T/C (second compound 0.316 µM, first compound 0.949 µM): 106%
viability, T/C (second compound 0.316 µM, first compound 3 µM): 94.9%
viability, T/C (second compound 1 µM, first compound 0.00949 µM): 100%
viability, T/C (second compound 1 µM, first compound 0.03 µM): 100%
viability, T/C (second compound 1 µM, first compound 0.0949 µM): 104%
viability, T/C (second compound 1 µM, first compound 0.3 µM): 100%
viability, T/C (second compound 1 µM, first compound 0.949 µM): 105%
viability, T/C (second compound 1 µM, first compound 3 µM): 82%
viability, T/C (second compound 3.16 µM, first compound 0.00949 µM): 94.5%
viability, T/C (second compound 3.16 µM, first compound 0.03 µM): 98.4%
viability, T/C (second compound 3.16 µM, first compound 0.0949 µM): 92.9%
viability, T/C (second compound 3.16 µM, first compound 0.3 µM): 91.2%
viability, T/C (second compound 3.16 µM, first compound 0.949 µM): 93.4%
viability, T/C (second compound 3.16 µM, first compound 3 µM): 70.8%
viability, T/C (second compound 10 µM, first compound 0.00949 µM): 94%
viability, T/C (second compound 10 µM, first compound 0.03 µM): 95.7%
viability, T/C (second compound 10 µM, first compound 0.0949 µM): 93.5%
viability, T/C (second compound 10 µM, first compound 0.3 µM): 93.7%
viability, T/C (second compound 10 µM, first compound 0.949 µM): 83.3%
viability, T/C (second compound 10 µM, first compound 3 µM): 57.6%

IC50 (second compound 0.1 µM): < 3.16 nM
IC50 (second compound 0.316 µM): < 3.16 nM
IC50 (second compound 1 µM): < 3.16 nM
IC50 (second compound 3.16 µM): < 3.16 nM
IC50 (second compound 10 µM): < 3.16 nM
Structure (SMILES): CNC(C)C(=O)NC1CN(S(=O)(=O)c2cccc(S(=O)(=O)N3CCC4CCC(C(=O)NC(c5ccccc5)c5ccccc5)N4C(=O)C(NC(=O)C(C)NC)C3)c2)CCC2CCC(C(=O)NC(c3ccccc3)c3ccccc3)N2C1=O (stereo not given) + Cc1c(S(C)(=O)=O)c(-c2cc(F)cc(N3CCN(c4ccc(NS(=O)(=O)c5ccc(NC(CCN6CCC(C(=O)OCCCP(=O)(O)O)CC6)CSc6ccccc6)c(S(=O)(=O)C(F)(F)F)c5)cc4)CC3)c2)c(-c2ccc(Cl)cc2)n1C(C)C
viability, T/C (second compound 0.1 µM, first compound 0.00316 µM): 2.88%
viability, T/C (second compound 0.1 µM, first compound 0.01 µM): 0.95%
viability, T/C [1]: 0.9%
viability, T/C [2]: 0.67%
viability, T/C [3]: 0.5%
viability, T/C [4]: 0.72%
viability, T/C (second compound 0.316 µM, first compound 0.00316 µM): 2.6%
viability, T/C (second compound 0.316 µM, first compound 0.01 µM): 0.97%
viability, T/C [7]: 0.75%
viability, T/C [8]: 0.41%
viability, T/C [9]: 0.53%
viability, T/C [10]: 0.56%
viability, T/C (second compound 1 µM, first compound 0.00316 µM): 2.07%
viability, T/C (second compound 1 µM, first compound 0.01 µM): 0.62%
viability, T/C [13]: 0.54%
viability, T/C [14]: 0.29%
viability, T/C [15]: 0.35%
viability, T/C [16]: 0.9%
viability, T/C (second compound 3.16 µM, first compound 0.00316 µM): 1.77%
viability, T/C (second compound 3.16 µM, first compound 0.01 µM): 0.46%
viability, T/C [19]: 0.35%
viability, T/C [20]: 0.27%
viability, T/C [21]: 0.26%
viability, T/C [22]: 0.39%
viability, T/C (second compound 10 µM, first compound 0.00316 µM): 1.22%
viability, T/C (second compound 10 µM, first compound 0.01 µM): 0.49%
viability, T/C [25]: 0.42%
viability, T/C [26]: 0.48%
viability, T/C [27]: 0.43%
viability, T/C [28]: 0.61%
